Measured values as given in US20050250765A1, “Diazepinones as antiviral agents” (priority 2000, published 2005).
Like-named read-outs stand apart in the source and are kept apart here.

Experiments:
in vitro = details: African green monkey, TC50
[1] = Metabolic stability, in vitro half-life in human liver microsomes; type: in vitro ADME; details: liver microsomes (pooled), 30 μM compound, 0.5 mg/mL pooled microsomal protein, 1.0 mM NADPH, 37° C., pH 7.4, read-out: t½ (min) Human Liver Microsome Preparation
Description: Compounds were individually incubated (30 μM, dissolved in DMSO) with human and mouse liver microsomes. The incubation consisted of 50 mM KPO4, pH 7.4 buffer with 0.5 mg/mL pooled microsomal protein, 30 μM compound, and 1.0 mM NADPH. The total incubate volume was 0.5 mL. The incubate solution was pro-incubated for 3 minutes at 37° C. and the reaction initiated by the addition of NADPH. At 0, 10, 20, and 40 minutes 50 μL aliquots were removed and quenched with 100 μL acetonitrile and 25 μL of internal standard. Standard curves of each compound were prepared in a simialr manner at a concentration range of 7.5 μM to 45 μM. Th in vitro metabolic half-life determinations of these preparations were determined from the concentration vs. time plots using WinNonlin software. The in vitro half-life data represents the extent of oxidative and hydrolytic metabolism.

Vero cells [2] = details: African green monkey, 2 day
Vero cells [3] = details: read-out: TC50; 2-day XTT, no virus

Row | Molecule | CC50 at 2 day (in vitro) | further results
1 | CCCN1CCNC(=O)c2sc3ccc(OCC)cc3c21 [D, 3-Ethoxy-5-propyl-5,6,7,8-tetrahydro-10-thia-5,8-diaza-benzo[a]azulen-9-one] | 100 µM | 
2 | COc1ccc2oc3c(c2c1)N(CCC(C)C)CCNC3=O [YY5, 3-Methoxy-5-(3-methyl-butyl)-5,6,7,8-tetrahydro-10-oxa-5,8-diaza-benzo[a]azulen-9-one] | 10 µM | 
3 | CCCCN1CCNC(=O)c2sc3ccc([N+](=O)[O-])cc3c21 [DD, 5-n-Butyl-3-nitro-5,6,7,8-tetrahydro-10-thia-5,8-diaza-benz[a]azulen-9-one] | 12.9 µM | 
4 | C=CCN1CCNC(=O)c2sc3ccc([N+](=O)[O-])cc3c21 [U, 5-Allyl-3-nitro-5,6,7,8-tetrahydro-10-thia-5,8-diaza-benz[a]azulen-9-one] | 8.1 µM | 
5 | C=C(C)CN1CCNC(=O)c2sc3ccc(F)cc3c21 [CC5, 3-Fluoro-5-(2-methyl-allyl)-5,6,7,8-tetrahydro-10-thia-5,8-diaza-benz[a]azulen-9-one] | 18.5 µM | 
6 | COc1cccc(CN2CCNC(=O)c3ccc4cnccc4c32)c1 [FF4, 11-(3-Methoxy-benzyl)-8,9,10,11-tetrahydro-3,8,11-triaza-cyclohepta[a]naphthalen-7-one] |  | half-life at 30 μM [1]: > 200 min
7 | CCN1CCNC(=O)c2oc3ccc(OC)cc3c21 [H, 5-Ethyl-3-methoxy-5,6,7,8-tetrahydro-10-oxa-5,8-diaza-benzo[a]azulen-9-one] |  | half-life at 30 μM [1]: 200 min
8 | COc1ccc2sc3c(c2c1)NC(Cc1ccccc1)CNC3=O (centres unmarked) [PP2, 6-Benzyl-3-methoxy-5,6,7,8-tetrahydro-10-thia-5,8-diaza-benzo[a]azulen-9-one] | 1.1 µM | 
9 | COc1cccc(CN2CC(C)NC(=O)c3sc4ccc(OC)cc4c32)c1 (centres unmarked) [O, 3-Methoxy-5-(3-methoxy-benzyl)-7-methyl-5,6,7,8-tetrahydro-10-thia-5,8-diaza-benzo[a]azulen-9-one] |  | CC50 (Vero cells [2]): 18 µM
10 | COc1ccc(CN2CC(C)(C)NC(=O)c3sc4ccc(OC)cc4c32)cc1 [K, 3-Methoxy-5-(4-methoxy-benzyl)-7,7-dimethyl-5,6,7,8-tetrahydro-10-thia-5,8-diaza-benzo[a]azulen-9-one] |  | half-life at 30 μM [1]: 150 min
11 | C=C(C)CN1CCNC(=O)c2sc3ccc([N+](=O)[O-])cc3c21 [Q, 5-(2-Methyl-allyl)-3-nitro-5,6,7,8-tetrahydro-10-thia-5,8-diaza-benz[a]azulen-9-one] | 6 µM | 
12 | CCCN1CC(C)(C)NC(=O)c2sc3ccc(OC)cc3c21 [TT, 3-Methoxy-7,7-dimethyl-5-propyl-5,6,7,8-tetrahydro-10-thia-5,8-diaza-benzo[a]azulen-9-one] | 0.4 µM | 
13 | C=C(Cl)CN1CCNC(=O)c2sc3ccc(OC)cc3c21 [MM3, 5-(2-Chloro-allyl)-3-methoxy-5,6,7,8-tetrahydro-10-thia-5,8-diaza-benzo[a]azulen-9-one] | 3 µM | 
14 | CCOc1ccc2sc3c(c2c1)NCC(C)(C)NC3=O [NN, 3-Ethoxy-7,7-dimethyl-5,6,7,8-tetrahydro-10-thia-5,8-diaza-benzo[a]azulen-9-one] |  | half-life at 30 μM [1]: 133 min
15 | COc1ccc2sc3c(c2c1)N(Cc1ccccc1C)CCNC3=O [WW3, 3-Methoxy-5-(2-methyl-benzyl)-5,6,7,8-tetrahydro-10-thia-5,8-diaza-benzo[a]azulen-9-one] | 10.2 µM | 
16 | COc1cccc(CN2CC(C)NC(=O)c3sc4ccc(OC)cc4c32)c1 (centres unmarked) [EE2, 3-Methoxy-5-(3-methoxy-benzyl)-7-methyl-5,6,7,8-tetrahydro-10-thia-5,8-diaza-benzo[a]azulen-9-one] |  | CC50 (Vero cells [2]): 3.4 µM
17 | COc1ccc2sc3c(c2c1)NCCNC3=O [B, 3-Methoxy-5,6,7,8-tetrahydro-10-thia-5,8-diaza-benzo[a]azulen-9-one] | 4.5 µM | half-life at 30 μM [1]: 66 min
18 | O=C1NCCNc2c1ccc1cnccc21 [F, 8,9,10,11-Tetrahydro-3,8,11-triaza-cyclohepta[a]naphthalen-7-one] | 1.7 µM | half-life at 30 μM [1]: > 200 min
19 | COc1ccc2sc3c(c2c1)N(Cc1ccc([N+](=O)[O-])cc1)CCNC3=O [SS3, 3-Methoxy-5-(4-nitro-benzyl)-5,6,7,8-tetrahydro-10-thia-5,8-diaza-benzo[a]azulen-9-one] | 83 µM | 
20 | CN1CCNC(=O)c2ccc3cnccc3c21 [GG4, 11-Methyl-8,9,10,11-tetrahydro-3,8,11-triaza-cyclohepta[a]naphthalen-7-one] | 11.5 µM | 
21 | COc1cccc(CN2CCNC(=O)c3sc4ccc(OC)cc4c32)c1 [C, 3-Methoxy-5-(3-methoxy-benzyl)-5,6,7,8-tetrahydro-10-thia-5,8-diaza-benzo[a]azulen-9-one] | 10 µM | 
22 | 5-(3-Methoxy-benzyl)-3-nitro-5,6,7,8-tetrahydro-10-thia-5,8-diaza-benz[a]azulen-9-one [W] |  | CC50 (Vero cells [3]): 100 µM
23 | COc1cccc(CN2CCNC(=O)c3sc4ccc([N+](=O)[O-])cc4c32)c1 [V, 5-(3-Methoxy-benzyl)-3-nitro-5,6,7,8-tetrahydro-10-thia-5,8-diaza-benz[a]azulen-9-one] | 1.3 µM | 
24 | COc1ccc2sc3c(c2c1)N(Cc1ccc(C#N)cc1)CCN(C)C3=O [AA4, 4-(3-Methoxy-8-methyl-9-oxo-6,7,8,9-tetrahydro-10-thia-5,8-diaza-benzo[a]azulen-5-ylmethyl)-benzonitrile] | 100 µM | 
